Reference: PubChem BioAssay AID488825 (NMMLSC, 2010)

System: S. cerevisiae CIT2-GFP strain, flow cytometry fluorescence, 3 h
Assay: yeast TOR pathway CIT2-GFP reporter analogs – flow cytometry, cherry pick 3, dose response, SAR follow-up (AID 488825)

CNc1nc(N)c([N+](=O)[O-])c(Nc2cccc(Cl)c2)n1
EC50: 5.72 µM
